Assay results published in PMC12155096 (International Journal of Molecular Sciences, 2025).

Tests used:
[1] = target: T1, human CYP1A2 (Homo sapiens, UniProt P05177)
T1 sequence (P05177 1-516): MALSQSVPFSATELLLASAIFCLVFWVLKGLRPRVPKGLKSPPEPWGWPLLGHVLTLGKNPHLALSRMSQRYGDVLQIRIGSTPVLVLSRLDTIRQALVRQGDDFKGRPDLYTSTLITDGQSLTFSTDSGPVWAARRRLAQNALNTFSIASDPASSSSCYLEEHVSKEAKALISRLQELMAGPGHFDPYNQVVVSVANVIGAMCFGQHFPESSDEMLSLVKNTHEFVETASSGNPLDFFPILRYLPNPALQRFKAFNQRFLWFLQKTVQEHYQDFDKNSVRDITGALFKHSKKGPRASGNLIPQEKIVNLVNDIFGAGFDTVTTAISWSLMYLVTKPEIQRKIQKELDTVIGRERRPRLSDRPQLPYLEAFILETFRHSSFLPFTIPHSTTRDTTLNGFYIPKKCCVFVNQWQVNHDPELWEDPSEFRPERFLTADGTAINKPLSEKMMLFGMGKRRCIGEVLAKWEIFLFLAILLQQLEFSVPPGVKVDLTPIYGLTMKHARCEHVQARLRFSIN

[2] = target: human CYP2C9 (Homo sapiens, UniProt P11712)
[3] = target: human CYP2C19 (Homo sapiens, UniProt P33261)
[4] = target: human CYP2D6 (Homo sapiens, UniProt P10635)
[5] = target: CYP3A4 (Homo sapiens, UniProt P08684)
Sequence of CYP3A4 (P08684 whole entry): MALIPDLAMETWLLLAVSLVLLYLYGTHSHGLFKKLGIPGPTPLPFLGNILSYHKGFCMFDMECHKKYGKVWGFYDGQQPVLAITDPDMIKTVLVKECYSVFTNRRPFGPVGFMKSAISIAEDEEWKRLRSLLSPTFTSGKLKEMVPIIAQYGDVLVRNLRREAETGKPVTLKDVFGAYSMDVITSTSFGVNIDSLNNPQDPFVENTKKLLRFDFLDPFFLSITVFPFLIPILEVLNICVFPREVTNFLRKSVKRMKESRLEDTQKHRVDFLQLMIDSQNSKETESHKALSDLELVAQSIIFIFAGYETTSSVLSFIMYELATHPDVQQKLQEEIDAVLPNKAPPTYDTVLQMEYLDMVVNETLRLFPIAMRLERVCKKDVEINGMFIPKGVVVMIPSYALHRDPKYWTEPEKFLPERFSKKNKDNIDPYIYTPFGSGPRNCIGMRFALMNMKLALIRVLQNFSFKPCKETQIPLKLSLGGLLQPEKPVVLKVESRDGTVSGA

Sequence of human CYP2C9 (P11712 whole entry): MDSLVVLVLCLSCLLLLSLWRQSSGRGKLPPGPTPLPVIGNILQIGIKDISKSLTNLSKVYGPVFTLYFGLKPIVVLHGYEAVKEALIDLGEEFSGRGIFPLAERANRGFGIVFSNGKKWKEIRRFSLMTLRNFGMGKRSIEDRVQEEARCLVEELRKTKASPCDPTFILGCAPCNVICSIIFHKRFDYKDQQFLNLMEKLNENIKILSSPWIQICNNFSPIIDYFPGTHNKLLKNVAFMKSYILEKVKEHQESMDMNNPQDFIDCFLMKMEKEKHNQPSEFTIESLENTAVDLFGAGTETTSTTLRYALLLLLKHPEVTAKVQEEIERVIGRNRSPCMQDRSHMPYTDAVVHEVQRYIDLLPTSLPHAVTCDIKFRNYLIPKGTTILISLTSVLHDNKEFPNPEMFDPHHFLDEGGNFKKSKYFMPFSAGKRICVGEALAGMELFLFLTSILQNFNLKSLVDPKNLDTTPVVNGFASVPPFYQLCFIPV
Sequence of human CYP2C19 (P33261 whole entry): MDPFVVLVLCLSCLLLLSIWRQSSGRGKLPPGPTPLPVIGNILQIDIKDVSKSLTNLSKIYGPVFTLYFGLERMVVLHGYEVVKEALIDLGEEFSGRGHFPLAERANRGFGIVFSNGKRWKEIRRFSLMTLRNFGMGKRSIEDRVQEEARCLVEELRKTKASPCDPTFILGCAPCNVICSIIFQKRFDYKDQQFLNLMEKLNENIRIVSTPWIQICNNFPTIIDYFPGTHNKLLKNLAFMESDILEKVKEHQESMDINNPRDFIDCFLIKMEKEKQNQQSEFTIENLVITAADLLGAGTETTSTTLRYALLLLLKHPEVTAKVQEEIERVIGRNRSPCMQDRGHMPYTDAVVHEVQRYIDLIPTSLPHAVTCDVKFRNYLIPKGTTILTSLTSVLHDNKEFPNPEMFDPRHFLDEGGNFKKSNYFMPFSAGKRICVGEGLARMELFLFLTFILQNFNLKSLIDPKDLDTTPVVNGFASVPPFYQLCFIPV
Sequence of human CYP2D6 (P10635 whole entry): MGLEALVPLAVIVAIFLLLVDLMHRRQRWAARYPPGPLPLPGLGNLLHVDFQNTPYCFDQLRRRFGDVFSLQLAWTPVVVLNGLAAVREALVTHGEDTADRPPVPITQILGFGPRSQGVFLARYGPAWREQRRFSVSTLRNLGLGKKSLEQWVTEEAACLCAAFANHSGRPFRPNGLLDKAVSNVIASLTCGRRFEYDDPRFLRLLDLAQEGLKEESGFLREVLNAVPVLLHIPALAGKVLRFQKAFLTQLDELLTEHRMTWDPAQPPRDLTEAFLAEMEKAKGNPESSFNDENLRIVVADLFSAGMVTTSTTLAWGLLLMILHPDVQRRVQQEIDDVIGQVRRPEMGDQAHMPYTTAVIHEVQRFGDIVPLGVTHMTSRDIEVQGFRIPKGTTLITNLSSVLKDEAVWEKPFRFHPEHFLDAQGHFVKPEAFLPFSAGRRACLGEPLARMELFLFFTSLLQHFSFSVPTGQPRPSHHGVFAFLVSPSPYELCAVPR

| SMILES | CYP1A2 AC50 (half-maximal activity concentration) [1] | AC50 [2] [µM] | CYP2C19 AC50 (half-maximal activity concentration) [3] | CYP2D6 AC50 (half-maximal activity concentration) [4] | CYP3A4 AC50 (half-maximal activity concentration) [5] | AC50 [5] [µM] | AC50 [4] [µM] | AC50 [1] [µM] | AC50 [3] [µM] | CYP2C9 AC50 (half-maximal activity concentration) [2] |
| --- | --- | --- | --- | --- | --- | --- | --- | --- | --- | --- |
| Clc1cnc(Oc2ccc(Oc3ncc(Cl)cc3Cl)cc2)c(Cl)c1 | Inactive | 2.34 | Inactive | Inactive | Inconclusive activator |  |  |  |  |  |
| C1CC(COCC2CO2)CCC1COCC1CO1 (stereo not shown) | Inconclusive inhibitor | 56.6 | Inconclusive inhibitor | Inactive |  | 73.9 |  |  |  |  |
| CCCCCCCCCCCCCC[N+](C)(C)Cc1ccccc1.O.O.[Cl-] | Inactive | 40.7 | Inactive |  |  | 11.3 | 2.01 |  |  |  |
| CC1=Nc2ccc3ccccc3c2C1(C)C [1,1,2-Trimethyl-1H-benzo[e]indole] |  | 51.7 |  |  |  | 2.84 | 54 | 26.7 | 10.1 |  |
| c1ccc(SCCSc2ccccc2)cc1 [1,2-Bis(phenylthio)ethane] |  | 31.4 |  |  |  | 8.36 | 56.1 | 29.2 | 3.06 |  |
| O=C(O)c1ccc(OCCCOc2ccc(C(=O)O)cc2)cc1 [1,3-Bis(4-carboxyphenoxy)propane] | Inactive |  | Inactive |  |  | 26.4 | 8.08 |  |  | Inactive |
| C=C(C)C(=O)OCCCCCCOC(=O)C(=C)C [1,6-Hexanediol dimethacrylate] |  | 37.4 |  | Inactive |  | 16.9 |  | 37 | 51.5 |  |
| C=C(C)C(=O)OCCCCCCCCCCOC(=O)C(=C)C [1,10-Decanediol dimethacrylate] |  |  | Inconclusive inhibitor |  |  | 46.2 | 37 | 40.1 |  | Inconclusive inhibitor |
| BrCc1cccc(Oc2ccccc2)c1 [1-(Bromomethyl)-3-phenoxybenzene] |  | 82.9 |  |  |  | 80 | 50.3 | 41.5 | 19.9 |  |
| CCCCCCCCS(=O)(=O)Cl [1-Octanesulfonyl chloride] | Inactive | 28.7 | Inconclusive inhibitor | Inconclusive inhibitor |  | 22.9 |  |  |  |  |
| O=C1NC(=O)c2cccc3cccc1c23 [1H-Benzo[de]isoquinoline-1,3(2H)-dione] |  | 33.1 | Inconclusive inhibitor | Inactive | Inconclusive activator |  |  | 2.74 |  |  |
| COC(OC)(C(=O)c1ccccc1)c1ccccc1 [2,2-Dimethoxy-1,2-diphenylethanone] | Inactive | 22.5 |  |  |  | 10.2 | 34.6 |  | 15.9 |  |
| O=C(c1ccc(O)c(O)c1)c1ccc(O)cc1O [2,3',4,4'-Tetrahydroxybenzophenone] |  | 4.22 |  |  |  | 18.4 | 7.5 | 34.3 | 33.2 |  |
| O=C(O)c1cc2ccccc2nc1C(=O)O [2,3-Quinolinedicarboxylic acid] |  |  | Inactive | Inactive |  | 25.2 |  | 47.9 |  | Inactive |
| O=C(c1ccc(O)cc1)c1ccc(O)cc1O [2,4,4'-Trihydroxybenzophenone] |  | 3.18 | Inactive |  |  | 19.4 | 33 | 34.3 |  |  |
| O=S(=O)(O)c1cc(Cl)c(Cl)cc1Cl [2,4,5-Trichlorobenzenesulfonic acid] | Inconclusive inhibitor | 33 | Inconclusive inhibitor | Inconclusive |  | 48.3 |  |  |  |  |
| CCOC(=O)COc1ccc(Cl)cc1Cl [2,4-D-ethyl ester] |  | 55.5 |  | Inconclusive inhibitor |  | 17.1 |  | 30.8 | 26.8 |  |
| O=C([O-])CCCOc1ccc(Cl)cc1Cl.[Na+] [2,4-DB-sodium] | Inactive | 60.6 | Inconclusive inhibitor | Inactive |  | 46.2 |  |  |  |  |

| SMILES | CYP1A2 AC50 (half-maximal activity concentration) [1] | AC50 [2] [µM] | CYP2C19 AC50 (half-maximal activity concentration) [3] | CYP2D6 AC50 (half-maximal activity concentration) [4] | CYP3A4 AC50 (half-maximal activity concentration) [5] | AC50 [5] [µM] | AC50 [4] [µM] | AC50 [1] [µM] | AC50 [3] [µM] | CYP2C9 AC50 (half-maximal activity concentration) [2] |
| --- | --- | --- | --- | --- | --- | --- | --- | --- | --- | --- |
| COc1ccc(C(=O)c2ccc(O)cc2)c(OC)c1 [2,4-Dimethoxy-4'-hydroxy benzophenone] |  | 0.64 |  | Inconclusive inhibitor |  | 31.7 |  | 49.2 | 6.52 |  |
| CCCC(C)c1ccccc1O (stereo not shown) [2-(1-Methylbutyl)phenol] |  | 49 |  | Inactive | Inactive |  |  | 56.6 | 10.9 |  |
| c1ccc(CCCc2ccccn2)cc1 [2-(3-Phenylpropyl)pyridine] |  | 33.1 |  |  |  | 8.01 | 53.2 | 31.2 | 7.19 |  |
| Nc1ccccc1S(=O)(=O)c1ccccc1 [2-(Phenylsulfonyl)aniline] |  | 8.25 |  | Inactive |  | 71 |  | 50.5 | 17.8 |  |
| CC(C)c1ccc2sc3ccccc3c(=O)c2c1 [2-(Propan-2-yl)-9H-thioxanthen-9-one] |  | 15.6 |  |  |  | 7.71 | 27.5 | 7.68 | 13.1 |  |
| NS(=O)(=O)c1ccccc1OC(F)(F)F [2-(Trifluoromethoxy)benzenesulfonamide] |  | 62.1 | Inconclusive inhibitor | Inactive | Inactive |  |  | 51.9 |  |  |
| CC(=O)c1cc2ccccc2s1 [2-Acetylbenzo[b]thiophene] |  |  | Inactive | Inactive |  | 24.6 |  | 6.92 |  | Inactive |
| Nc1ccc(Cl)cc1C(=O)c1ccccc1F [2-Amino-5-chloro-2'-fluorobenzophenone] |  | 16.1 |  | Inactive |  | 8.75 |  | 14.4 | 11.9 |  |
| CC(C)NC(=O)c1ccccc1N [2-Amino-N-(1-methylethyl)benzamide] |  |  |  | Inactive |  | 35.7 |  | 51.1 | 3.36 | Inactive |
| NC(=O)Nc1nc2ccccc2[nH]1 [2-Benzimidazolylurea] |  | 60.5 |  |  |  | 47.5 | 34.2 | 47.2 | 47.2 |  |
| Brc1nc2ccccc2s1 [2-Bromobenzothiazole] |  |  | Inactive | Inactive |  | 45.5 |  | 11.1 |  | Inactive |
| CCCCN1C(=O)c2ccccc2C1=O [2-Butyl-1H-isoindole-1,3(2H)-dione] |  | 50.6 |  | Inactive |  | 25.6 |  | 2.03 | 26.6 |  |
| Cc1cc(O)c(Cl)cc1C [2-Chloro-4,5-dimethylphenol] |  | 34.3 |  | Inactive | Inactive |  |  | 27.7 | 61.8 |  |
| CCCCCCCCC(CCCCCC)C(=O)O (stereo not shown) [2-Hexyldecanoic acid] | Inactive | 26.2 |  | Inactive |  | 65.1 |  |  | 34.3 |  |
| CCCCCC=CCC1CC(=O)OC1=O (stereo not shown) [2-Octen-1-ylsuccinic anhydride] |  |  |  | Inactive |  | 31.9 |  | 31.9 | 55 | Inactive |
| O=C(C=Cc1ccccc1)OCCc1ccccc1 [2-Phenylethyl 3-phenylprop-2-enoate] |  | 25.6 |  | Inactive |  | 15.7 |  | 6.35 | 20.8 |  |
| O=C(O)c1cc(Br)c(O)c(Br)c1 [3,5-Dibromo-4-hydroxybenzoic acid] |  | 68.4 |  | Inconclusive inhibitor |  | 35.7 |  | 35.7 | 23.8 |  |
